The subject of data set [1] is dihydrotestosterone production in prostate cell DU145. The data set is described as follows: Dihydrotestosterone production-inhibitory activity in prostate cells (LC-MS/MS). It counts as cell-based, human. The conditions noted are these: 48 hours. The procedure:
CWR-22Rv1, LNCaP, DU145, and PC-3 cells which are human prostate cancer cell lines were cultured and maintained in an RPMI medium (Roswell Park Memorial Institute medium) supplemented with 10% heat-inactivated fetal bovine serum (FBS), 10 U/mL penicillin, and 100 μg/mL streptomycin under conditions of 5% carbon dioxide and 37° C. The internal standard compound was dissolved in dimethyl sulfoxide at a concentration of 10 μM, and 1 μL thereof was added to 150 μL of cell culture, and treated to a cartridge to perform sample pretreatment. […] Thereafter, re-solvation was performed by using 50% aqueous methanol, and products were kept frozen at −20° C. Mass spectrometry of the stored samples was performed by using an AB SCIEX API 4000 QTRAP tandem quadrupole mass spectrometer. HPLC system used herein was Agilent 1200 pump, and solvent A was water/acetonitrile (95:5 v/v, 0.1% formic acid), and solvent B was acetonitrile/water (95:5 v/v, 0.1% formic acid). For chromatography separation, a linear gradient from 40% B solvent to 100% B solvent in 8 minutes was used. An analysis column used herein was an XTerra MS C18 column (2.1 mm×150 mm, 3.5 μm) of Waters corporation, and analysis was performed while maintaining temperature at 25° C. and a flow rate of 0.2 mL/min. […]

In data set [2] the test system is DU145 cells. In words: Cell viability of human prostate cell line (EZCytox). It counts as cell-based. The conditions noted are these: 48 hours, relative to DMSO control (FIG. 4). The procedure: With regard to the human prostate cancer cell line DU145 cultured and maintained in Experimental Example 1, the culture medium and prostate cell culture were mixed, and 1×10^4 cells were seeded in a 96-well plate, and then cultured for 24 hours under conditions of 5% carbon dioxide and 37° C.
After being stabilized, the cells were treated with only 0.2% dimethyl sulfoxide as a control group, treated with testosterone (100 ng/mL or 200 ng/mL) alone, or treated with testosterone and 10 μM finasteride as a positive control, or testosterone and 1 μM, 10 μM, or 20 μM fucoxanthin, and then cultured for 48 hours.
Thereafter, the media were collected for LC-MS/MS analysis, and then cell viability of prostate cells was measured in order to examine whether treatment of the compound influences growth of the prostate cells. The cell viability was determined by measuring absorbance at 450 nm after adding an EZCytox reagent (Daeil Lab Service, Korea) and culturing for 1-4 hours under conditions of 5% carbon dioxide and 37° C. The cell viability was calculated as a percentage relative to cell viability of the control group treated with dimethyl sulfoxide (DMSO) only.

With `CC(C)(C)NC(=O)[C@H]1CC[C@H]2[C@@H]3CC[C@H]4NC(=O)C=C[C@]4(C)[C@H]3CC[C@]12C` [finasteride], in data set [1] (DU145, testosterone 100 ng/mL plus finasteride 10 μM, vs testosterone alone (FIG. 3)), the dihydrotestosterone production result is listed as “remarkably inhibited”. Further, the “cell viability of prostate cells” value in data set [2] (DU145, testosterone plus finasteride 10 μM) is “did not influence cell viability”.
`CC(=O)O[C@H]1CC(C)(C)C(=C=C/C(C)=C/C=C/C(C)=C/C=C/C=C(C)/C=C/C=C(\C)C(=O)C[C@@]23O[C@]2(C)C[C@@H](O)CC3(C)C)[C@](C)(O)C1` [fucoxanthin]: the dihydrotestosterone production result in data set [1] (DU145, testosterone 100 ng/mL plus fucoxanthin 1 μM, 10 μM, 20 μM, vs testosterone alone, inhibition increased with concentration (FIG. 3)) is “remarkably inhibited”. The “cell viability of prostate cells” value in data set [2] (DU145, testosterone plus fucoxanthin 1 μM, 10 μM or 20 μM) is on record as “did not influence cell viability”.

For the origin of these results see patent US10758512B2 (KOREA INSTITUTE OF SCIENCE AND TECHNOLOGY, priority 2016, dated 2020).
